Experimental data taken from ChEMBL document CHEMBL4138123, “Design, synthesis and biological evaluation of novel pyrazolochalcones as potential modulators of PI3K/Akt/mTOR pathway and inducers of apoptosis in breast cancer cells” (Eur J Med Chem, 2017).

Experiments:
Type in all cases: functional
[1] = system: UACC-257; experiment: Cytotoxicity against human UACC257 cells assessed as growth inhibition after 48 hrs by sulforhodamine B assay; settings: UACC-257, 48 h
[2] = system: MDA-MB-231; experiment: Cytotoxicity against human MDA-MB-231 cells assessed as cell growth at 10 uM after 48 hrs by sulforhodamine B assay relative to control; settings: MDA-MB-231, 48 h, read-out: Activity
[3] = system: NCI-H322M; experiment: Cytotoxicity against human NCI-H322M cells assessed as cell growth at 10 uM after 48 hrs by sulforhodamine B assay relative to control; settings: read-out: Activity
[4] = system: NCI-H23; experiment: Cytotoxicity against human NCI-H23 cells assessed as cell growth at 100 uM after 48 hrs by sulforhodamine B assay relative to control; settings: NCI-H23, 48 h, read-out: Activity
[5] = system: ACHN; experiment: Cytotoxicity against human ACHN cells assessed as cell growth at 0.1 uM after 48 hrs by sulforhodamine B assay relative to control; settings: read-out: Activity
[6] = system: PC-3; experiment: Cytotoxicity against human PC3 cells assessed as cell growth at 0.1 uM after 48 hrs by sulforhodamine B assay relative to control; settings: PC-3, 48 h, read-out: Activity
[7] = system: NCI/ADR-RES; experiment: Cytotoxicity against human NCI/ADR-RES cells assessed as cell growth at 100 uM after 48 hrs by sulforhodamine B assay relative to control; settings: read-out: Activity
[8] = system: HCT-116; experiment: Cytotoxicity against human HCT116 cells assessed as cell growth at 0.1 uM after 48 hrs by sulforhodamine B assay relative to control; settings: HCT-116, 48 h, read-out: Activity
[9] = system: NCI-H522; experiment: Cytotoxicity against human NCI-H522 cells assessed as cell growth at 100 uM after 48 hrs by sulforhodamine B assay relative to control; settings: NCI-H522, 48 h, read-out: Activity
[10] = system: Malme-3M; experiment: Cytotoxicity against human MALME-3M cells assessed as cell growth at 0.01 uM after 48 hrs by sulforhodamine B assay relative to control; settings: read-out: Activity
[11] = system: OVCAR-5; experiment: Cytotoxicity against human OVCAR5 cells assessed as cell growth at 0.01 uM after 48 hrs by sulforhodamine B assay relative to control; settings: OVCAR-5, 48 h, read-out: Activity
[12] = system: DU-145; experiment: Cytotoxicity against human DU145 cells assessed as cell growth at 10 uM after 48 hrs by sulforhodamine B assay relative to control; settings: DU-145, 48 h, read-out: Activity
[13] = system: HCC 2998; experiment: Cytotoxicity against human HCC2998 cells assessed as growth inhibition after 48 hrs by sulforhodamine B assay; settings: HCC 2998, 48 h
[14] = system: RXF 393; experiment: Cytotoxicity against human RXF393 cells assessed as cell growth at 0.01 uM after 48 hrs by sulforhodamine B assay relative to control; settings: RXF 393, 48 h, read-out: Activity
[15] = system: KM12; experiment: Cytotoxicity against human KM12 cells assessed as growth inhibition after 48 hrs by sulforhodamine B assay; settings: KM12, 48 h
[16] = system: UACC-62; experiment: Cytotoxicity against human UACC62 cells assessed as cell growth at 100 uM after 48 hrs by sulforhodamine B assay relative to control; settings: UACC-62, 48 h, read-out: Activity
[17] = system: NCI-H522; experiment: Cytotoxicity against human NCI-H522 cells assessed as cell growth at 0.01 uM after 48 hrs by sulforhodamine B assay relative to control; settings: NCI-H522, 48 h, read-out: Activity
[18] = system: HL-60(TB); experiment: Cytotoxicity against human HL-60(TB) cells assessed as growth inhibition after 48 hrs by sulforhodamine B assay; settings: HL-60, 48 h
[19] = system: K562; experiment: Cytotoxicity against human K562 cells assessed as cell growth at 100 uM after 48 hrs by sulforhodamine B assay relative to control; settings: K562, 48 h, read-out: Activity
[20] = system: OVCAR-8; experiment: Cytotoxicity against human OVCAR8 cells assessed as cell growth at 100 uM after 48 hrs by sulforhodamine B assay relative to control; settings: OVCAR-8, 48 h, read-out: Activity
[21] = system: Hs-578T; experiment: Cytotoxicity against human Hs 578T cells assessed as cell growth at 100 uM after 48 hrs by sulforhodamine B assay relative to control; settings: read-out: Activity
[22] = system: UACC-257; experiment: Cytotoxicity against human UACC257 cells assessed as cell growth at 100 uM after 48 hrs by sulforhodamine B assay relative to control; settings: UACC-257, 48 h, read-out: Activity
[23] = system: NCI-H226; experiment: Cytotoxicity against human NCI-H226 cells assessed as cell growth at 100 uM after 48 hrs by sulforhodamine B assay relative to control; settings: NCI-H226, 48 h, read-out: Activity
[24] = system: KM12; experiment: Cytotoxicity against human KM12 cells assessed as cell growth at 1 uM after 48 hrs by sulforhodamine B assay relative to control; settings: KM12, 48 h, read-out: Activity
[25] = system: K562; experiment: Cytotoxicity against human K562 cells assessed as cell growth at 0.1 uM after 48 hrs by sulforhodamine B assay relative to control; settings: K562, 48 h, read-out: Activity
[26] = system: HCT-15; experiment: Cytotoxicity against human HCT15 cells assessed as growth inhibition after 48 hrs by sulforhodamine B assay; settings: HCT-15, 48 h
[27] = system: OVCAR-8; experiment: Cytotoxicity against human OVCAR8 cells assessed as cell growth at 10 uM after 48 hrs by sulforhodamine B assay relative to control; settings: OVCAR-8, 48 h, read-out: Activity
[28] = system: HL-60(TB); experiment: Cytotoxicity against human HL-60(TB) cells assessed as cell growth at 10 uM after 48 hrs by sulforhodamine B assay relative to control; settings: HL-60, 48 h, read-out: Activity
[29] = system: UACC-62; experiment: Cytotoxicity against human UACC62 cells assessed as cell growth at 10 uM after 48 hrs by sulforhodamine B assay relative to control; settings: UACC-62, 48 h, read-out: Activity
[30] = system: SNB-19; experiment: Cytotoxicity against human SNB19 cells assessed as growth inhibition after 48 hrs by sulforhodamine B assay; settings: SNB-19, 48 h
[31] = system: Hs-578T; experiment: Cytotoxicity against human Hs 578T cells assessed as cell growth at 0.01 uM after 48 hrs by sulforhodamine B assay relative to control; settings: read-out: Activity
[32] = system: A498; experiment: Cytotoxicity against human A498 cells assessed as cell growth at 10 uM after 48 hrs by sulforhodamine B assay relative to control; settings: A498, 48 h, read-out: Activity
[33] = system: A498; experiment: Cytotoxicity against human A498 cells assessed as cell growth at 100 uM after 48 hrs by sulforhodamine B assay relative to control; settings: A498, 48 h, read-out: Activity
[34] = system: MDA-MB-435; experiment: Cytotoxicity against human MDA-MB-435 cells assessed as cell growth at 100 uM after 48 hrs by sulforhodamine B assay relative to control; settings: MDA-MB-435, 48 h, read-out: Activity
[35] = system: SF-268; experiment: Cytotoxicity against human SF268 cells assessed as cell growth at 0.1 uM after 48 hrs by sulforhodamine B assay relative to control; settings: SF-268, 48 h, read-out: Activity
[36] = system: SN12C; experiment: Cytotoxicity against human SN12C cells assessed as growth inhibition after 48 hrs by sulforhodamine B assay

## COc1ccc(C(=O)/C=C/c2cc(-c3cc(OC)c(OC)c(OC)c3)n[nH]2)cc1
[1]
  TGI: 3.74 µM
[2]
  growth at 10 µM: -33%
[3]
  growth at 10 µM: -60%
[4]
  growth at 100 µM: -23%
[5]
  growth at 0.1 µM: 102%
[6]
  growth at 0.1 µM: 95%
[7]
  growth at 100 µM: -6%
[8]
  growth at 0.1 µM: 102%
[9]
  growth at 100 µM: -62%
[10]
  growth at 0.01 µM: 95%
[11]
  growth at 0.01 µM: 99%
[12]
  growth at 10 µM: -93%
[13]
  LC50: 6.48 µM
  TGI: 3.4 µM
[14]
  growth at 0.01 µM: 93%
[15]
  LC50: 6.02 µM
  TGI: 3.06 µM
[16]
  growth at 100 µM: -48%
[17]
  growth at 0.01 µM: 83%
[18]
  LC50: > 100 µM
  TGI: 4.78 µM
[19]
  growth at 100 µM: 1%
[20]
  growth at 100 µM: -16%
[21]
  growth at 100 µM: 5%
[22]
  growth at 100 µM: -4%
[23]
  growth at 100 µM: -35%
[24]
  growth at 1 µM: 83%
[25]
  growth at 0.1 µM: 102%
[26]
  LC50: > 100 µM
  TGI: 4.37 µM
[27]
  growth at 10 µM: -8%
[28]
  growth at 10 µM: -47%
[29]
  growth at 10 µM: -74%
[30]
  TGI: 3.03 µM
[31]
  growth at 0.01 µM: 99%
[32]
  growth at 10 µM: -57%
[33]
  growth at 100 µM: -34%
[34]
  growth at 100 µM: -44%
[35]
  growth at 0.1 µM: 91%

## COc1cc(-c2cc(/C=C/C(=O)c3ccc(N)cc3)[nH]n2)cc(OC)c1OC
[1]
  GI50: 1.87 µM
  LC50: 8.66 µM
  TGI: 4.02 µM
[2]
  growth at 10 µM: 7%
[3]
  growth at 10 µM: -32%
[4]
  growth at 100 µM: -55%
[5]
  growth at 0.1 µM: 97%
[6]
  growth at 0.1 µM: 94%
[7]
  growth at 100 µM: -3%
[8]
  growth at 0.1 µM: 97%
[9]
  growth at 100 µM: -83%
[10]
  growth at 0.01 µM: 98%
[11]
  growth at 0.01 µM: 90%
[12]
  growth at 10 µM: -50%
[13]
  GI50: 2.01 µM
  LC50: 6.53 µM
  TGI: 3.63 µM
[14]
  growth at 0.01 µM: 91%
[15]
  GI50: 1.41 µM
  LC50: 7.27 µM
  TGI: 2.88 µM
[16]
  growth at 100 µM: -92%
[17]
  growth at 0.01 µM: 92%
[18]
  GI50: 1.74 µM
  LC50: > 100 µM
  TGI: 10.8 µM
[19]
  growth at 100 µM: -3%
[20]
  growth at 100 µM: -91%
[21]
  growth at 100 µM: 2%
[22]
  growth at 100 µM: -93%
[23]
  growth at 100 µM: -59%
[24]
  growth at 1 µM: 57%
[25]
  growth at 0.1 µM: 94%
[26]
  GI50: 1.37 µM
  LC50: > 100 µM
  TGI: 6.76 µM
[27]
  growth at 10 µM: -1%
[36]
  GI50: 1.86 µM
  LC50: 13.4 µM
  TGI: 4.52 µM
[29]
  growth at 10 µM: -69%
[30]
  GI50: 2.34 µM
  TGI: 9.98 µM
[30]; read-out: LC50 (the source's name)
  CC50: 34 µM
[31]
  growth at 0.01 µM: 95%
[32]
  growth at 10 µM: -43%
[33]
  growth at 100 µM: -96%
[34]
  growth at 100 µM: -85%
[35]
  growth at 0.1 µM: 106%
